Laboratory results as given in US8558011B2, “Cold menthol receptor-1 antagonists” (Janssen Pharmaceutica, NV, priority 2010, dated 2013).
pIC50: −log10 of the molar value. Where “and” joins values, the source holds several entries; their conditions need not be identical. Equal entries are not always repeated.

Target: T1, canine TRPM8 (Canis lupus familiaris, UniProt Q1A7N1)
T1 construct: expressed in transfected cells
Assay: In Vitro Canine TRPM8 Functional Assay (Ca2+-sensitive fluorescent dye, icilin activation, FLIPR/FDSS)
Assay type: cell-based
Conditions: HEK293 cells stably expressing canine TRPM8, icilin activation; for pIC50: eight-point dose-response; for % I (1 μM): compound at 1 μM; for % I (0.5 μM): compound at 0.5 μM
Method: The functional activity of compounds of Formula (I) was determined by measuring changes in intracellular calcium concentration using a Ca^2+-sensitive fluorescent dye. The changes in fluorescent signal were monitored by a fluorescence plate reader, either a FLIPR™ (Molecular Devices) or FDSS (Hamamatsu).
HEK293 cells stably expressing canine TRPM8 were routinely grown as monolayers in Dulbecco's minimum essential medium supplemented with 10% FBS, 1 mM L-glutamine, 100 units/mL penicillin, 100 ug/mL streptomycin and 400 μg/mL G418. Cells were maintained in 5% CO2 at 37° C. At 24 hrs prior to assay, cells were seeded in clear-base poly-D-lysine coated 384-well plates (BD Biosciences, NJ, USA) at a density of 5,000 cells per well in culture medium and grown overnight in 5% CO2 at 37° C. On assay day, growth media was removed and cells were loaded with Calcium 3 Dye (Molecular Devices) for 35 min at 37° C., under 5% CO2 and then for 25 min at room temperature and atmosphere. Subsequently, cells were tested for agonist-induced increases in intracellular Ca^2+ levels using FLIPR™ or FDSS. Cells were challenged with a compound of Formula (I) (at varying concentrations) and intracellular Ca^2+ was measured for 5 min prior to the addition of icilin to all wells to achieve a final concentration which produces approximately an 80% maximal response.
Basal FI was subtracted prior to normalizing data to percent of maximal response. Curves were generated using the average of quadruplicate wells for each data point, were analyzed using nonlinear regression of either sigmoidal dose response or sigmoidal dose response (variable slope). Finally, the EC50 and IC50 values were calculated with the best-fit dose curve determined by GraphPad Prism.

T1 sequence (Q1A7N1 1-1104): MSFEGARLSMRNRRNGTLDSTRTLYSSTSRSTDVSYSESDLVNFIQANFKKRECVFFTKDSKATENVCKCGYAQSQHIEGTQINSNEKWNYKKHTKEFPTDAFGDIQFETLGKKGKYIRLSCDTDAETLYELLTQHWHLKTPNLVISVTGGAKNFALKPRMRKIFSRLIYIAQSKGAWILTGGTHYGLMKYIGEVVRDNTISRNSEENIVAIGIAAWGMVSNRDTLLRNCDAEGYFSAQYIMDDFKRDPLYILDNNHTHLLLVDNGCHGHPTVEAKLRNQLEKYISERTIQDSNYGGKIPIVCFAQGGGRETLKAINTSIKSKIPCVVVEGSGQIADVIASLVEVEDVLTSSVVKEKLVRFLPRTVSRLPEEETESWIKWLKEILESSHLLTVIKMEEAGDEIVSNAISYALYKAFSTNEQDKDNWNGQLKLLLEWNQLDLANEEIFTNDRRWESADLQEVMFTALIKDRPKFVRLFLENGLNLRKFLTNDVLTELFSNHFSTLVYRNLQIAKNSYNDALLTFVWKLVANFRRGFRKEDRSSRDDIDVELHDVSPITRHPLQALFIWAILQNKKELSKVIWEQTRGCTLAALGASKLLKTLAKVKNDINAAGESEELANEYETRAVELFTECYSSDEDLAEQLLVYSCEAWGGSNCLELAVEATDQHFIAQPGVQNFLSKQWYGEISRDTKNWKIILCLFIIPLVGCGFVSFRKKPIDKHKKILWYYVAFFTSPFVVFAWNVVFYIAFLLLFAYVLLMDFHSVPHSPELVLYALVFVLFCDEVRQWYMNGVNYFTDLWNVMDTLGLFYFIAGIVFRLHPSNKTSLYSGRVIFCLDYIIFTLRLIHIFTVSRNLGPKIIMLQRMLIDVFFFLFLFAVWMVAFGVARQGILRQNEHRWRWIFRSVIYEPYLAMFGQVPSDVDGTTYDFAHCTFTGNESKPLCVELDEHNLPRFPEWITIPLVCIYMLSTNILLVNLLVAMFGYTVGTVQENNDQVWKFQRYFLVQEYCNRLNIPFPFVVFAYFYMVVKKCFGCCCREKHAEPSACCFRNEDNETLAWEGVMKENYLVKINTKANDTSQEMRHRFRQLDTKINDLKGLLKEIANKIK

| SMILES | pIC50 | % I (1 μM) | % I (5 μM) (compound at 5 μM) [%] | % I (0.5 μM) |
| --- | --- | --- | --- | --- |
| CCOP(=O)(OCC)C(Cc1cccc(F)c1F)c1sc2ccccc2c1C (racemic) [Cpd 10] | 7.37 | 100% |  |  |
| Cc1c(C(Cc2ccc(F)c(F)c2)P(=O)(OC(C)C)OC(C)C)oc2ccccc12 (racemic) [Cpd 11] | 7.37 and 7.33 | 99% and 103% |  |  |
| CC(C)OP(=O)(OC(C)C)C(Cc1ccc(F)c(F)c1)c1sc2ccccc2c1C(C)C (racemic) [Cpd 19] | 7.17 | 100% |  |  |
| CCOP(=O)(OCC)C(Cc1cccc(Cl)c1F)c1sc2ccccc2c1C (racemic) [Cpd 23] | 7.02 | 100% |  |  |
| CCOP(=O)(OCC)C(Cc1ccccc1C)c1sc2ccccc2c1C (racemic) [Cpd 26] | 6.97 | 100% |  |  |
| CCOP(=O)(OCC)C(Cc1ccc(F)cc1Cl)c1sc2ccccc2c1C (racemic) [Cpd 27] | 6.96 | 99% |  |  |
| CCOP(=O)(OCC)C(Cc1cc(F)cc(F)c1Cl)c1sc2ccccc2c1C (racemic) [Cpd 28] | 6.96 | 100% |  |  |
| CCOP(=O)(OCC)C(Cc1cccc(Cl)c1Cl)c1sc2ccccc2c1C (racemic) [Cpd 35] | 6.90 | 100% |  |  |
| CCOP(=O)(OCC)C(Cc1cccc(C(F)(F)F)c1F)c1sc2ccccc2c1C (racemic) [Cpd 37] | 6.90 | 100% |  |  |
| CC(C)OP(=O)(OC(C)C)C(Cc1ccc(F)c(F)c1)c1sc2ccccc2c1C1CCCC1 (racemic) [Cpd 38] | 6.85 | 99% |  |  |
| CCOP(=O)(OCC)C(Cc1cccc(C(F)(F)F)c1)c1cc2ccccc2s1 (racemic) [Cpd 39] | 6.85 | 100% |  |  |
| CCOP(=O)(OCC)C(Cc1ccc2ccccc2c1)c1sc2ccccc2c1C (racemic) [Cpd 46] | 6.78 | 99% |  |  |
| CCOP(=O)(OCC)C(Cc1cc(Cl)ccc1Cl)c1sc2ccccc2c1C (racemic) [Cpd 47] | 6.78 | 100% |  |  |
| CCOP(=O)(OCC)C(Cc1ccccc1Cl)c1sc2ccccc2c1C (racemic) [Cpd 48] | 6.77 | 100% |  |  |
| CCOP(=O)(OCC)C(Cc1ccc(F)c(F)c1)c1sc2cccc(F)c2c1C (centres unmarked) [Cpd 3, [2-(3,4-Difluoro-phenyl)-1-(4-fluoro-3-methyl-benzo[b]-thiophene-2-yl)-ethyl]-phosphonic acid diethyl ester] |  | 100% |  |  |
| CCOP(=O)(OCC)C(Cc1ccc(F)c(F)c1)c1sc2c(F)cccc2c1C (centres unmarked) [Cpd 8, [2-(3,4-Difluoro-phenyl)-1-(7-fluoro-3-methyl-benzo[b-]thiophene-2-yl)-ethyl]-phosphonic acid diethyl ester] |  | 100% |  |  |
| CCOP(=O)(OCC)C(Cc1ccc(F)c(F)c1)c1oc2ccccc2c1C (centres unmarked) [Cpd 9, [2-(3,4-Difluoro-phenyl)-1-(3-methyl-benzofuran-2-yl)-ethyl]-phosphonic acid diethyl ester] |  | 100% |  |  |
| CCOP(=O)(OCC)C(Cc1ccc(F)c(F)c1)c1sc2cc(F)ccc2c1C (centres unmarked) [Cpd 16, [2-(3,4-Difluoro-phenyl)-1-(6-fluoro-3-methyl-benzo[b]-thiophene-2-yl)-ethyl]-phosphonic acid diethyl ester] |  | 100% |  |  |
| CCOP(=O)(OCC)C(Cc1ccc(Cl)c(Cl)c1)c1sc2ccccc2c1Br (centres unmarked) [Cpd 24, [1-(3-Bromo-benzo[b]thiophen-2-yl)-2-(3,4-dichloro-phenyl)-ethyl]-phosphonic acid diethyl ester] |  | 100% |  |  |
| CCOP(=O)(OCC)C(Cc1ccc(F)c(F)c1)c1sc2ccc(F)cc2c1C (centres unmarked) [Cpd 45, [2-(3,4-Difluoro-phenyl)-1-(5-fluoro-3-methyl-benzo[b]thiophene-2-yl)-ethyl]-phosphonic acid diethyl ester] |  | 100% |  |  |
| CCOP(=O)(OCC)C(Cc1ccc(F)c(F)c1)c1sc2cccc(Cl)c2c1C (centres unmarked) [Cpd 65, [1-(4-Chloro-3-methyl-benzo[b]thiophen-2-yl)-2-(3,4-difluoro-phenyl)-ethyl]-phosphonic acid diethyl ester] |  | 100% |  |  |
| CCOP(=O)(OCC)C(Cc1ccc(Cl)c(Cl)c1)c1cc2ccccc2s1 (centres unmarked) [Cpd 78, [1-Benzo[b]thiophen-2-yl-2-(3,4-dichloro-phenyl)-ethyl]-phosphonic acid diethyl ester] |  | 95% |  |  |
| CCOP(=O)(OCC)C(C)(Cc1ccc(F)c(F)c1)c1sc2ccccc2c1C (centres unmarked) [Cpd 79, [2-(3,4-Difluoro-phenyl)-1-methyl-1-(3-methyl-benzo[b]-thiophen-2-yl)-ethyl]-phosphonic acid diethyl ester] |  | 88% |  |  |
| CCOP(=O)(Cc1cc2ccccc2s1)OCc1c(Cl)cccc1Cl (centres unmarked) [Cpd 94, Benzo[b]thiophen-2-ylmethyl-phosphonic acid 2,6-dichloro-benzyl ester ethyl ester] |  | 79% |  |  |
| CCOP(=O)(Cc1cc2ccccc2s1)OCc1ccccc1C (centres unmarked) [Cpd 104, Benzo[b]thiophen-2-ylmethyl-phosphonic acid ethyl ester 2-methyl-benzyl ester] |  | 53% |  |  |

| SMILES | pIC50 | % I (1 μM) | % I (5 μM) (compound at 5 μM) [%] | % I (0.5 μM) |
| --- | --- | --- | --- | --- |
| CCOP(=O)(Cc1cc2ccccc2s1)OCc1ccccc1Cl (centres unmarked) [Cpd 105] | 6.00 | 48% | 100 |  |
| CCOP(=O)(Cc1cc2ccccc2s1)OCc1ccccc1F (centres unmarked) [Cpd 109, Benzo[b]thiophen-2-ylmethyl-phosphonic acid ethyl ester 2-fluoro-benzyl ester] |  | 17% |  |  |
| CCOP(=O)(OCC)C(Cc1ccc(F)c(F)c1)c1sc2ncccc2c1Br (centres unmarked) [Cpd 132, 1-[(3-Bromo-thieno[2,3-b]pyridin-2-yl)-2-(3,4-difluoro-phenyl)-ethyl]-phosphonic acid diethyl ester] |  | 102% |  |  |
| CCOP(=O)(OCC)C(Cc1cccc(Cl)c1F)c1sc2ccccc2c1Br (centres unmarked) [Cpd 143] | 7.17 |  |  | 101% |
| CCOP(=O)(OCC)C(Cc1ccc(C(F)(F)F)c(F)c1)c1sc2ccccc2c1Br (centres unmarked) [Cpd 144] | 7.24 |  |  | 101% |
| CCOP(=O)(OCC)C(Cc1cccc(OC(F)(F)F)c1)c1sc2ccccc2c1Br (centres unmarked) [Cpd 145] | 6.92 and 6.94 |  |  | 103, % and 102% |
| CCOP(=O)(OCC)C(Cc1cc(C(F)(F)F)ccc1F)c1sc2ccccc2c1Br (centres unmarked) [Cpd 146] | 7.00 |  |  | 103% |
| CCOP(=O)(OCC)C(Cc1ccccc1Cl)c1sc2ccccc2c1Br (centres unmarked) [Cpd 147] | 6.90 |  |  | 103% |
| CCOP(=O)(OCC)C(Cc1cc(C(F)(F)F)ccc1Cl)c1sc2ccccc2c1Br (centres unmarked) [Cpd 148] | 6.76 |  |  | 103% |
| CCOP(=O)(OCC)C(Cc1ccc(OC(F)(F)F)c(Cl)c1)c1sc2ccccc2c1Br (centres unmarked) [Cpd 149] | 7.22 |  |  | 103% |
| CCOP(=O)(OCC)C(Cc1ccc(C(F)(F)F)cc1F)c1sc2ccccc2c1Br (centres unmarked) [Cpd 150] | 7.05 |  |  | 103% |
| CCOP(=O)(OCC)C(Cc1cccc(C(F)(F)F)c1Cl)c1sc2ccccc2c1Br (centres unmarked) [Cpd 151] | 6.92 |  |  | 103% |
| CCOP(=O)(OCC)C(Cc1ccc(OC)c(C(F)(F)F)c1)c1sc2ccccc2c1Br (centres unmarked) [Cpd 152] | 7.27 and 7.30 |  |  | 102% and 92% |
| CCOP(=O)(OCC)C(Cc1ccc(SC(F)(F)F)cc1)c1sc2ccccc2c1Br (centres unmarked) [Cpd 153] | 7.37 |  |  | 103% |
| CCOP(=O)(OCC)C(Cc1ccc(C(F)(F)F)cc1)c1sc2ccccc2c1Br (centres unmarked) [Cpd 154] | 7.57 |  |  | 103% |
| CCOP(=O)(OCC)C(Cc1ccc(F)c(OC)c1)c1sc2ccccc2c1Br (centres unmarked) [Cpd 156] |  |  |  | 103% |
| COc1cc(CC(c2sc3ccccc3c2Br)P(=O)(OC(C)C)OC(C)C)ccc1F (centres unmarked) [Cpd 157] |  |  |  | 103% |
| CCOP(=O)(OCC)C(Cc1ccc(OC)c(F)c1)c1sc2ccccc2c1Br (centres unmarked) [Cpd 158] | 7.23 |  |  | 101% |
| COc1ccc(CC(c2sc3ccccc3c2Br)P(=O)(OC(C)C)OC(C)C)cc1F (centres unmarked) [Cpd 159] | 7.44 |  |  | 103% |
| CCOP(=O)(OCC)C(Cc1c(F)c(F)c(OC)c(F)c1F)c1sc2ccccc2c1Br (centres unmarked) [Cpd 160] | 7.22 |  |  | 87% |
| COc1c(F)c(F)c(CC(c2sc3ccccc3c2Br)P(=O)(OC(C)C)OC(C)C)c(F)c1F (centres unmarked) [Cpd 161] | 7.72 |  |  | 103% |
| CCOP(=O)(OCC)C(Cc1cccc(OC)c1F)c1sc2ccccc2c1Br (centres unmarked) [Cpd 162] | 7.49 |  |  | 103% |
| COc1ccc(CC(c2sc3ccccc3c2Br)P(=O)(OC(C)C)OC(C)C)c(F)c1 (centres unmarked) [Cpd 163] | 7.70 |  |  | 103% |
| CCOP(=O)(OCC)C(Cc1cc(OC)c(Cl)cc1F)c1sc2ccccc2c1Br (centres unmarked) [Cpd 164] | 7.09 |  |  | 94% |
| COc1cc(CC(c2sc3ccccc3c2Br)P(=O)(OC(C)C)OC(C)C)c(F)cc1Cl (centres unmarked) [Cpd 165] | 7.07 |  |  | 102% |
